Test results reported in patent US20260191861A1, “INFLAMMASOME AND VEGF INHIBITION FOR RETINAL VASCULAR DISEASES” (University of Virginia Patent Foundation, priority 2022, published 2026).

Key:
[1] = system: participants with diabetic macular edema; test: Visual acuity (VALS) compared with synthetic controls from the DRCR.net Protocol T study (IPTW, propensity score matching, GEE); assay type: in vivo, human; details: for Model-based contrast: change in visual acuity, Lamivudine vs. Aflibercept / Model-based contrast: change in visual acuity, Lamivudine vs. Bevacizumab / Model-based contrast: change in visual acuity, Lamivudine vs. Ranibizumab: IPTW model; for Mixed-effect model: change in visual acuity from baseline, Lamivudine vs Placebo / Mixed-effect model: change in visual acuity from baseline, Lamivudine vs. Aflibercept / Mixed-effect model: change in visual acuity from baseline, Lamivudine vs. Bevacizumab / Mixed-effect model: change in visual acuity from baseline, Lamivudine vs. Ranibizumab: propensity score matching
Description: The second analysis included participants from the lamivudine versus placebo trial, along with a synthetic comparator created using data from the DRCR.net Protocol T study. The source of the data is DRCR.net (2018) A Comparative Effectiveness Study of Intravitreal Aflibercept, Bevacizumab and Ranibizumab for Diabetic Macular Edema, retrieved from https://public.jaeb.org/drcrnet/stdy/download/206. The analyses, content, and conclusions presented herein are solely the responsibility of the authors and have not been reviewed or approved by DRCR.net.
Inclusion criteria for participants from the DRCR.net Protocol T study were based on their similarity to the lamivudine versus placebo trial design. This involved selecting only patients with type 2 diabetes, study eyes with a baseline VALS<69, and complete follow-up visual acuity measurements at weeks 4 and 8.
Propensity score methods were used to select DRCR.net Protocol T study participants similar to lamivudine-treated patients. Inverse probability treatment weights (IPTW) and propensity score matching were used. To estimate the IPTW weights, a multinomial logistic regression was used to estimate propensity scores using important predictors including baseline visual acuity and baseline central subfield thickness along with age, gender, and duration of diabetes. Weights were calculated as the reciprocal of the estimated propensity score of the actual treatment received. Weights were then truncated at the 99th percentile. For the propensity score matched analysis, lamivudine-treated patients were matched to each DRCR.net Protocol T treatment arm (aflibercept, bevacizumab, ranibizumab) and placebo group, separately. Due to the limited sample size for matching within each group, propensity score models included the most important predictors of acuity change including baseline visual acuity, age and duration of diabetes.
For the IPTW analysis, a mixed-effects weighted model was fit with subject-specific random effects. […] The model's estimates, confidence intervals (CI), and P values were reported for each predictor. Additionally, model-based contrasts were conducted to compare the change in VALS from baseline between lamivudine and the Protocol T treatments.
For each propensity score matched group (e.g., lamivudine-bevacizumab, lamivudine-aflibercept), a mixed effect model was fit estimating the change in visual acuity from baseline. Subject specific random effect was included along with fixed effect predictors: treatment group, baseline VALS, central subfield thickness, eye (left vs right), age, sex, race and type 2 diabetes duration.
Secondary outcomes included the change in central subfield thickness, the percentage of eyes with an improvement in VALS of 15 or more, the correlation between improvements in visual acuity and central subfield thickness, and systemic and ocular adverse events. Change in central subfield thickness was estimated using mixed-effects models, similar to the VALS analysis. To analyze a VALS improvement of at least 15 letters, logistic regression using generalized estimating equations (GEEs) was specified with an exchangeable correlation matrix. Model-based contrasts were estimated to make pairwise treatment comparisons.

[2] = system: caspase-1; test: Rhegmatogenous retinal detachment (RRD) model: retinal caspase-1 cleavage by immunoblot; assay type: in vivo, mouse; details: day 3 RRD, equimolar IP doses twice daily (K-9H 60 mg/kg, 3TC 50 mg/kg)
Protocol: (§1) All experiments involving animals were approved by the University of Virginia Institutional Animal Care and Use Committee (IACUC) and adhered to the Association for Research in Vision and Ophthalmology (ARVO) Statement for the Use of Animals in Ophthalmic and Vision Research. Animal subjects were male and female mice aged 6 to 10 weeks. Wild type C57BL/6J mice were obtained from the Jackson Laboratory (Bar Harbor, ME, USA). To anesthetize mice for study procedures, ketamine hydrochloride (100 mg/kg; Ft. Dodge Animal Health, Overland Park, KS, USA) and xylazine (10 mg/kg; Phoenix Scientific, St. Joseph, MO, USA) were delivered by intraperitoneal (IP) injection. Pupils were dilated with topical 1% tropicamide and 2.5% phenylephrine (Alcon Laboratories, Ft. Worth, TX, USA).
(§2) RRD model was established by subretinal injection (SRI) of 3 μl 1% carboxymethyl cellulose (CMC; Refresh Liquigel, Allergan, Irvine, CA, USA).
(§3) NRTIs and K-9 were delivered via intraperitoneal (IP) injection in equimolar amounts. […] Kamuvudine K-9 (3-methyl-3TC, MW=273 g/mol) was administered either at a low dose (K-9L; 90 mg/kg daily) or a high dose (K-9H; 60 mg/kg twice daily, equimolar to NRTI doses). IP injection of phosphate buffered saline (PBS) was used as control.
Retinal tissue was extracted and lysed by sonication in radioimmunoprecipitation assay (RIPA) buffer (MilliporeSigma, Darmstadt, Germany). The Pierce BCA Protein Assay Kit (ThermoFisher Scientific, Waltham, MA, USA) was used to determine protein concentrations of interest. Samples were prepared that contained equal concentrations of total protein (10-100 μg). Protein samples were resolved by SDS-PAGE and transferred onto Immobilon-FL PVDF membranes (Millipore, Billerica, MA, USA). Membranes were blocked in Odyssey Blocking Buffer (PBS) for 1 hour at room temperature, and then incubated overnight with primary antibody at 4° C. Across study experiments, the following antibodies were used: anti-mouse caspase-1 (1:1000; AG-20B-0042; AdipoGen Life Sciences, San Diego, CA, USA), and anti-mouse GAPDH (1:1000; 2118; Cell Signaling, Danvers, MA, USA). […]

[3] = system: photoreceptors (TUNEL+ cells in the ONL); test: RRD model: TUNEL assay of the retinal outer nuclear layer; assay type: in vivo, mouse; details: day 3 RRD, equimolar IP doses twice daily (K-9H 60 mg/kg, 3TC 50 mg/kg)
Protocol: as §1, §2, §3
Retinal cross cryosections at a thickness of 10 μm were stained with TUNEL (TdT-mediated dUTP nick-end labeling) using the In Situ Cell Death Detection Kit (Roche Diagnostics, Indianapolis, IN, USA) according to the manufacturer's′ instructions. The sections were wet-mounted with ProLong anti-fade reagent with DAPI (P36935, ThermoFisher Scientific, Waltham, MA, USA) and visualized using an A1R laser confocal microscope (Nikon, Tokyo, Japan). Fourteen representative sections, including the optic nerve, were used per treatment group. To calculate the number of TUNEL+ cells in the outer nuclear layer (ONL), the retina analysis toolkit of ImageJ (2.1.0; NIH, Bethesda, MD, USA) was used.

Nc1ccn([C@@H]2CS[C@H](CO)O2)c(=O)n1 [Lamivudine]
Model-based contrast: change in visual acuity, Lamivudine vs. Aflibercept [1]: 3.73
Model-based contrast: change in visual acuity, Lamivudine vs. Bevacizumab [1]: 6.83
Model-based contrast: change in visual acuity, Lamivudine vs. Ranibizumab [1]: 5.04
Mixed effect model: change from baseline visual acuity, treatment estimate (ref: Placebo) ([1]; IPTW model with synthetic controls): 12.15
Mixed effect model: change from baseline visual acuity, treatment estimate (ref: Placebo) ([1]; IPTW model with synthetic controls, listed as lamivudine): 12.2
Model-based contrast: change in visual acuity, Lamivudine vs. Aflibercept ([1]; listed as lamivudine): 3.7
Model-based contrast: change in visual acuity, Lamivudine vs. Bevacizumab ([1]; listed as lamivudine): 6.8
Model-based contrast: change in visual acuity, Lamivudine vs. Ranibizumab ([1]; listed as lamivudine): 5.0
Mixed effect model: change from baseline visual acuity, treatment estimate (ref: Placebo) ([1]; Original (unweighted) model with synthetic controls): 11.19
Mixed-effect model: change in visual acuity from baseline, Lamivudine vs Placebo [1]: 10.88
Mixed-effect model: change in visual acuity from baseline, Lamivudine vs. Aflibercept [1]: 2.33
Mixed-effect model: change in visual acuity from baseline, Lamivudine vs. Bevacizumab [1]: 8.95
Mixed-effect model: change in visual acuity from baseline, Lamivudine vs. Ranibizumab [1]: 7.24
Mixed-effect model: change in visual acuity from baseline, Lamivudine vs Placebo ([1]; listed as lamivudine): 10.9
Mixed-effect model: change in visual acuity from baseline, Lamivudine vs. Aflibercept ([1]; listed as lamivudine): 2.3
Mixed-effect model: change in visual acuity from baseline, Lamivudine vs. Bevacizumab ([1]; listed as lamivudine): 9
Mixed-effect model: change in visual acuity from baseline, Lamivudine vs. Ranibizumab ([1]; listed as lamivudine): 7.3
degree of suppression of caspase-1 activation [2]: 52%+8%
degree of photoreceptor protection [3]: 38%+10%
